In ChEMBL document CHEMBL3045131, “Cyclopenta[b]benzofurans from Aglaia species with pronounced antifungal activity against rice blast fungus (Pyricularia grisea)” (J Agric Food Chem, 2000):
Values after ≈ are worked out from the molar mass of the structure shown. Active and inactive are the calls of the source. The rule behind the calls is not given here.

Legend:
Type in all cases: functional, organism-based
Pyricularia grisea = assay: Antifungal activity against Magnaporthe grisea VIAM MA1627 assessed as inhibition of spore germination by microdilution technique linked with digital image analysis
Alternaria citri [1] = assay: Antifungal activity against Alternaria citri CBS 192.81; VIAM MA1628 assessed as inhibition of spore germination by microdilution technique linked with digital image analysis
Fusarium avenaceum = assay: Antifungal activity against Fusarium avenaceum VIAM MA1512 assessed as inhibition of spore germination by microdilution technique linked with digital image analysis
Alternaria citri [2] = assay: Antifungal activity against Alternaria citri CBS 192.81; VIAM MA1628 assessed as inhibition of spore germination at 200 ug/ml by microdilution technique linked with digital image analysis

SMILES	EC50 (Pyricularia grisea) [µg/mL]	EC90 (Pyricularia grisea) [µg/mL]	MIC (Pyricularia grisea) [µg/mL]	EC50 (Alternaria citri [1]) [µg/mL]	EC90 (Alternaria citri [1]) [µg/mL]	MIC (Alternaria citri [1]) [µg/mL]	EC50 (Fusarium avenaceum) [µg/mL]	EC90 (Fusarium avenaceum) [µg/mL]	MIC (Fusarium avenaceum) [µg/mL]	Activity (Alternaria citri [2])
COc1ccc(C2C(=O)Oc3cc4c(c(OC)c32)OCO4)cc1 (configuration not stated) [AGLALACTONE]	> 200	> 200	> 200	–	–	–	–	–	–	–
COC(=O)[C@H]1[C@@H](O)[C@@]2(O)c3c(OC)cc(OC)cc3O[C@@]2(c2ccc(OC)cc2)[C@@H]1c1ccccc1 [AGLAFOLIN]	0.05 (≈ 0.102 µM)	8 (≈ 16.2 µM)	3 (≈ 6.09 µM)	44 (≈ 89.3 µM)	171 (≈ 347 µM)	200 (≈ 406 µM)	1.6 (≈ 3.25 µM)	38 (≈ 77.2 µM)	100 (≈ 203 µM)	–
COc1ccc([C@@]23Oc4cc5c(c(OC)c4[C@]2(O)[C@H](O)[C@H](C(=O)N(C)C)[C@H]3c2ccccc2)OCO5)cc1 [AGLAROXIN A]	1.4 (≈ 2.69 µM)	> 200	100 (≈ 192 µM)	–	–	–	–	–	–	–
COC(=O)[C@H]1[C@@H](O)[C@@]2(O)c3c(cc4c(c3OC)OCO4)O[C@@]2(c2ccc(OC)cc2)[C@@H]1c1ccccc1 [PANNELLIN]	0.06 (≈ 0.118 µM)	171 (≈ 338 µM)	50 (≈ 98.7 µM)	> 200	> 200	> 200	11 (≈ 21.7 µM)	> 200	200 (≈ 395 µM)	–
COC(=O)[C@@H]1[C@@]2(O)c3c(cc4c(c3OC)OCO4)O[C@]1(c1ccc(OC)cc1)[C@H](c1ccccc1)[C@H]2C(=O)N1CCCC1NC(=O)C(C)C (some centres not stated) [THAPSAKINACETATE A]	> 200	> 200	> 200	–	–	–	–	–	–	–
CN(CC[C@H](N)CC(=O)N[C@H]1C=C[C@H](n2ccc(N)nc2=O)O[C@@H]1C(=O)O)C(=N)N [BLASTICIDIN_S]	–	> 200	> 200	6 (≈ 14.2 µM)	53 (≈ 125 µM)	50 (≈ 118 µM)	0.4 (≈ 0.947 µM)	7 (≈ 16.6 µM)	25 (≈ 59.2 µM)	–
COc1ccc([C@]2(C(=O)O)Oc3cc4c(c(OC)c3C(=O)[C@H](C(=O)N3CCCC3NC(=O)C(C)C)[C@H]2c2ccccc2)OCO4)cc1 (some centres not stated) [THAPOXEPINE A]	> 200	> 200	> 200	–	–	–	–	–	–	–
COc1ccc([C@@]23Oc4cc(OC)cc(OC)c4[C@]2(O)[C@H](O)[C@H](C(=O)N(C)C)[C@H]3c2ccccc2)cc1 [ROCAGLAMIDE]	0.9 (≈ 1.78 µM)	35 (≈ 69.2 µM)	25 (≈ 49.4 µM)	> 200	> 200	> 200	8 (≈ 15.8 µM)	66 (≈ 131 µM)	200 (≈ 396 µM)	–
COc1ccc([C@@]23Oc4cc(OC)cc(OC)c4[C@]2(O)[C@H](O)C[C@H]3c2ccccc2)cc1 [ROCAGLAOL]	0.01 (≈ 0.023 µM)	0.3 (≈ 0.69 µM)	1.6 (≈ 3.68 µM)	6 (≈ 13.8 µM)	24 (≈ 55.2 µM)	50 (≈ 115 µM)	0.4 (≈ 0.921 µM)	9 (≈ 20.7 µM)	25 (≈ 57.5 µM)	inactive
CCCCNC(=O)n1c(NC(=O)OC)nc2ccccc21 [BENOMYL]	–	84 (≈ 289 µM)	200 (≈ 689 µM)	> 200	> 200	> 200	–	> 200	100 (≈ 344 µM)	–
CNC(=O)[C@H]1[C@@H](O)[C@@]2(O)c3c(OC)cc(OC)cc3O[C@@]2(c2ccc(OC)cc2)[C@@H]1c1ccccc1 [DESMETHYL ROCAGLAMIDE]	7 (≈ 14.2 µM)	146 (≈ 297 µM)	100 (≈ 203 µM)	–	–	–	–	–	–	–
